The values that follow come from US20140239525A1, “INHALABLE PHARMACEUTICAL COMPOSITIONS” (BOARD OF REGENTS, UNIVERSITY OF TEXAS SYSTEM, priority 2011, published 2014).

The nature of data set [1]: Particle size distribution by laser diffraction (LD). It is filed as physicochemical. On the procedure:
Laser Diffraction (LD): Bulk CoQ10 powder was dispersed in 20% (v/v) 1,3-propanediol in deionized water for analysis of particle size distribution. This dispersed sample was then added to a small cell apparatus in a Malvern Mastersizer S® instrument (Malvern Instruments, Worcestershire, UK) equipped with a 300 mm lens until 5-10% obscuration was attained. The internal phase and dispersant refractive indexes were 1.45 and 1.33, respectively.
(§1) Particle Size Distribution: Particle size distribution testing of the dispersed formulations was performed with LD using a wet sample dispersion unit stirring at 1,000 rpm coupled to a Malvern Spraytec® (Malvern Instruments, Worcestershire, UK) equipped with a 300 mm lens. The dispersed formulations were added to distilled water (dispersant) until approximately 5% laser obscuration was attained. The internal phase and dispersant refractive indexes were set as 1.45 and 1.33, respectively. A timed measurement was performed for 45 seconds with 1 second sampling periods (a total of 45 measurements). Results are presented as Dv(X) and span, where X is the cumulative percentile of particles under the referred size (e.g. Dv(50) corresponds to the median volume of the particles). Span is a measurement of particle size distribution calculated as [Dv(90)-Dv(10)]/Dv(50)]. A higher span indicates a more polydisperse particle size distribution.
as §1, with “5%” for “5% laser”, “were” for “were set as”, “45 data acquisition periods).” for “45 measurements).”, “is the” for “is a”, “as [Dv(90)−Dv(10)]/Dv(50)].” for “as [Dv(90)-Dv(10)]/Dv(50)].”

Data set [2] can be described thus: CoQ10 in lung tissue of mice after 15 min nose-only aerosol dosing. It is filed as in vivo. The procedure:
(§2) Pulmonary Delivery to Mice: Animals were caged in groups of 4 and maintained on a normal rodent chow diet with free access to water. Prior to dosing, CD-1@ IGS ICR mice (Charles River Laboratories International, Inc., Wilmington, Mass., USA) were individually acclimatized for approximately 10 minutes per day for 3 days into restraint tubes, restricted by an anterior nose insert and a posterior holder. The dosing apparatus was placed inside a fume hood to collect escaping aerosol containing drug. To avoid influence from the airflow provided by the fume hood, an erlenmeyer container was placed at the end of the tubing system as a buffer. The airflow rate was set to 1 L/min to ensure proper drug aerosolization into the nose-only chamber (internal volume: 230 mL; diameter: 3.8 cm; length: 20.3 cm) using an Aeroneb Pro® vibrating-mesh nebulizer (Aerogen, Galway, Ireland). Following preparation, all formulations (saline control, DMPC, DPPC, and DSPC) were dosed for 15 minutes to mice weighing from 23 to 33 g each, at time of dosing. Each single-dose studied group consisted of thirty-six male animals. At each time point (0.5, 1, 3, 8, 24, and 48 hours after the end of the aerosolization event) six animals randomly selected from different dosing events of the same formulation were sacrificed by narcosis with carbon dioxide. As part of the collection process, blood was withdrawn by cardiac puncture, lungs were harvested, and a nasal wash was performed. The samples were extracted for analysis with liquid chromatography coupled with tandem mass spectrometry (LC/MS/MS).
Analysis of CoQ10 Levels in Lung Tissue, Blood Plasma, and Nasal Cavity: For each experiment, CoQ10 levels were determined after liquid extraction using liquid chromatography coupled with tandem mass spectrometry (LC-MS/MS). The methods were validated in the drug concentration range of 0.1 to 600 μg/mL. The general sample preparation protocols for lung tissue, blood plasma, and nasal cavity analysis are described below. […]

The test system of another data set is mice. Kind of data set: Survival and health of mice after aerosol dosing. The conditions noted are these: 48 hours after the end of the nebulization event. It is filed as in vivo. The procedure:
as §2, with “As part of the collection process, blood was withdrawn by cardiac puncture, lungs were harvested, and a nasal wash was performed. The samples were extracted for analysis with liquid chromatography coupled with tandem mass spectrometry (LC/MS/MS).” left out

In the next data set the test system is IL-12. Kind of data set: Inflammatory response: IL-12 in bronchoalveolar lavage supernatant by ELISA. It is filed as in vivo, mice. On the procedure:
The inflammatory response to the administration of hydrophobic bioactive agents (e.g., as discussed in connection with Example 1-3 above) was measured. Surgery is performed on sacrificed mice to expose the pleural cavity and trachea at the throat. […] An aliquot (about 0.75 mL) of phosphate buffered saline is instilled through the cannula into the lungs and removed to wash the bronchial and alveolar surfaces. This process is repeated for a total of three washes. The phosphate buffered saline containing cells is placed into centrifuge vials and centrifuged at about 3000 rpm (MiniSpin Plus, Eppendorf International, Hamburg, Del.). The supernatant is removed leaving the collected cells in the pellet. The supernatant from the BAL (Bronchoalveolar Lavage) is analyzed by enzyme-linked immunosorbent assay (ELISA) for IL-12 elevation (n=2 per sample tested).

The conditions of data set [3]: solubilized oral formulations, cited from earlier work.
The mark [4] stands for this setting: after ball milling for 18 hours.
The mark [5] stands for this setting: previous studies, same nebulizer.

Read-outs that look alike come from different tables or passages of the source.

As to `COC1=C(OC)C(=O)C(C/C=C(\C)CC/C=C(\C)CC/C=C(\C)CC/C=C(\C)CC/C=C(\C)CC/C=C(\C)CC/C=C(\C)CC/C=C(\C)CC/C=C(\C)CCC=C(C)C)=C(C)C1=O` [CoQ10, Coenzyme Q10], in data set [1] (setting [4]), the “Dv(50)” value is 29.87 μm and the span turned out to be 2.282. The compound also gave a particle size in data set [1] (bulk CoQ10 powder) of 30 μm. In addition, in data set [1] (bulk material), the “Dv(50)” value is on record as 29.87 μm and the span is reported as 2.051. Besides, in data set [2] (mice, after 15 min aerosol), the “time CoQ10 stays in the lungs at relatively high concentrations” value is given as “up to 48 hours”. Besides, in data set [2] (setting [5]), the “Cmax relative to dispersions of cyclosporine A” value is reported as no more than 75 fold and the “Cmax relative to dispersions of itraconazole” value is given as no more than 165 fold. Besides, the “survival and health signs” value with mice is “all mice were alive and presenting healthy signs”. The “IL-12 levels in BAL supernatant” value in the data set on IL-12 (ELISA) is “not associated with a rise in IL-12 levels”. Moreover, the lung inflammation entry in the data set on IL-12 (mouse, in vivo) is “does not cause lung inflammation”. Further, the “highest plasma concentration of CoQ10 reported in the literature” value in data set [3] (approximate conversion) is reported as “approximately 9 μg/mL”. For the same compound, in data set [3], the “highest plasma concentration of CoQ10 reported in the literature” value was 10.7 µmol/L.
